From patent US20100130621A1, “USE OF HYDROXYTYROSOL AS ANTI-AGING AGENT” (DSM IP ASSETS B.V., priority 2007, published 2010)

Assays:
PGC-1α = assay: Western blot analysis of PGC-1α protein level in adipocytes; type: cell-based, murine; conditions: 3T3-L1 adipocytes, 1.0 μM; bell-shape effect from 0.1 to 10.0 μM; mean±SE
Description: Murine 3T3-L1 pre-adipocytes (American Type Culture Collection) were cultured in Dulbecco's Modified Eagle's Medium (DMEM) supplemented with 10% fetal bovine serum and allowed to reach confluence. Differentiation of pre-adipocytes was initiated with 1 μM insulin, 0.25 μM dexamethasone and 0.5 mM 3-isobutyl-1-methylxanthine in DMEM, supplemented with 10% fetal bovine serum. After 48 h, the culture medium was replaced with DMEM supplemented with 10% fetal bovine serum and 1 μM insulin. The culture medium was changed every other day with DMEM containing 10% fetal bovine serum. […] After treatment, cells were washed twice with ice-cold PBS, lysed in sample buffer (62.5 mM Tris-Cl pH 6.8, 2% SDS, 5 mM DTT) at room temperature and vortexed. Cell lysates were then boiled for 5 minutes and cleared by centrifugation (13,000 rpm, 10 minutes at 4° C.). Protein concentration was determined using the Bio-Rad DC protein assay. The soluble lysates (10 μg per lane) were subjected to 10% SDS-PAGE, proteins were then transferred to nitrocellulose membranes and blocked with 5% non-fat milk/TBST for 1 h at room temperature. […] Western blots were developed using ECL (Roche Manheim, Germany) and quantified by scanning densitometry.

[1] = test system: mitochondrial electron transport complex I; assay: Western blot of mitochondrial electron transport complex I protein in adipocytes; type: cell-based, murine; conditions: 3T3-L1 adipocytes, 48 hrs
Description: Murine 3T3-L1 pre-adipocytes (American Type Culture Collection) were cultured in Dulbecco's Modified Eagle's Medium (DMEM) supplemented with 10% fetal bovine serum and allowed to reach confluence. Differentiation of pre-adipocytes was initiated with 1 μM insulin, 0.25 μM dexamethasone and 0.5 mM 3-isobutyl-1-methylxanthine in DMEM, supplemented with 10% fetal bovine serum. After 48 h, the culture medium was replaced with DMEM supplemented with 10% fetal bovine serum and 1 μM insulin. The culture medium was changed every other day with DMEM containing 10% fetal bovine serum. […] After treatment, cells were washed twice with ice-cold PBS, lysed in sample buffer (62.5 mM Tris-Cl pH 6.8, 2% SDS, 5 mM DTT) at room temperature and vortexed. Cell lysates were then boiled for 5 minutes and cleared by centrifugation (13,000 rpm, 10 minutes at 4° C.). Protein concentration was determined using the Bio-Rad DC protein assay. The soluble lysates (10 μg per lane) were subjected to 10% SDS-PAGE, proteins were then transferred to nitrocellulose membranes and blocked with 5% non-fat milk/TBST for 1 h at room temperature. Membranes were incubated with primary antibodies directed against PPAR-γ (1:1000), PGC-1α (1:1000), α-tubulin (1:10 000), Complex I (1:2000), Complex II (1:2000), Complex III (1:2000) and Complex V (1:2000) in 5% milk/TBST at 4° C. overnight. After washing membranes with TBST three times, membranes were incubated with horseradish peroxidase-conjugated secondary antibody for 1 h at room temperature. Western blots were developed using ECL (Roche Manheim, Germany) and quantified by scanning densitometry.

skeletal muscle = conditions: oral administration of 1 g per day; cited from earlier work

| SMILES | PGC-1α protein expression (maximum), vs. control (PGC-1α) | mitochondrial electron transport complex I protein, vs. control ([1]; 0.1 μM) | mitochondrial electron transport complex I protein, vs. control ([1]; 1.0 μM) | mitochondrial electron transport complex I protein, vs. control ([1]; 10.0 μM) | mitochondrial biogenesis in skeletal muscle (skeletal muscle) |
| --- | --- | --- | --- | --- | --- |
| OCCc1ccc(O)c(O)c1 [hydroxytyrosol, 3,4-dihydroxyphenylethanol] | 205±52% | 131±16% | 163±31% | 138±21% | – |
| O=C1O[C@H]([C@@H](O)CO)C(O)=C1O [Vitamin C] | – | – | – | – | decreases mitochondrial biogenesis |
